# Test results reported in patent US10562863B2, “Heterobifunctional linker” (THE GOVERNORS OF THE UNIVERSITY OF ALBERTA, priority 2016, dated 2020).
# Biological target: T1, branched-chain amino acid-binding protein LivF (Escherichia coli, UniProt P0AD96)
# T1 construct: inferred from the pET15b vector and Ni-NTA purification; made in house; host or cells: E. coli BL21
# Experiment: Competitive lateral flow assay, LivF test band
# Parameters: species or system E. coli
# Conditions: free Leu 0.5 and 2 mg/ml; 1M urea; citrate 2 mg/ml
# Text: We generated a useful metabolite sensor using a combination of a lateral flow assay (LFA), a metabolite-L1-AuNP conjugate (Leucine) and metabolite-specific protein. […] In our assay, the branched-chain amino acid-binding protein LivF35 was loaded onto nitrocellulose strips as the detection protein (“Test band”) and as the “Control band” the glutamate/aspartate binding protein Gltl36 was used, since the gold nanoparticles are stabilized with glutamate on their surface and that can be detected by Gltl as flow control. Leucine-decorated gold nanoparticles were loaded at the end of the strip in solution, with or without competing free leucine and the flow assay was performed.
# To prepare the LFA strips, lug of each protein (from a 0.5 ug/ul solution in 50 mM phosphate buffer, pH 7.5) was loaded onto FF80 nitrocellulose strips as a 0.5 cm line. 20 ul of a suspension of metabolite-coated AuNPs (3 mg/mL) was loaded onto the end of the membrane strips and allowed to flow through via capillary action. Bands showing the captured gold nanoparticles were documented with an electronic flatbed scanner (Canon Canoscan 5600).
# T1 sequence (P0AD96 24-367): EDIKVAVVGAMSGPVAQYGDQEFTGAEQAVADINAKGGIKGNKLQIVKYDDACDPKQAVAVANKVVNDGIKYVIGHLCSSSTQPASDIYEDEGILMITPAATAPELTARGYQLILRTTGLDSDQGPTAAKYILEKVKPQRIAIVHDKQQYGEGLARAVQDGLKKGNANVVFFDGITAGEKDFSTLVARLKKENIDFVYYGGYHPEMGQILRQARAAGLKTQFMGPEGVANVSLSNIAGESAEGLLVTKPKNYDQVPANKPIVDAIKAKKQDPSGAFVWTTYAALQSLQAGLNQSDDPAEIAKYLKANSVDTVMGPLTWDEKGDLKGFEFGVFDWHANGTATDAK
row,Structure (SMILES),Effect of free metabolite on LivF detection of leucine-coated AuNP
1,O=C(O)CC(O)(CC(=O)O)C(=O)O [citrate],not hampered
2,"CC(C)C[C@H](N)C(=O)O [free leucine, leucine]",abrogated
3,NC(N)=O [urea],not hampered
